From ChEMBL document CHEMBL1148451, “Receptor flexibility in the in silico screening of reagents in the S1' pocket of human collagenase” (J Med Chem, 2004)
pIC50, pKi: −log10 of the molar value.

Target: T1, Interstitial collagenase (Homo sapiens, UniProt P03956)
T1 sequence (P03956 whole entry): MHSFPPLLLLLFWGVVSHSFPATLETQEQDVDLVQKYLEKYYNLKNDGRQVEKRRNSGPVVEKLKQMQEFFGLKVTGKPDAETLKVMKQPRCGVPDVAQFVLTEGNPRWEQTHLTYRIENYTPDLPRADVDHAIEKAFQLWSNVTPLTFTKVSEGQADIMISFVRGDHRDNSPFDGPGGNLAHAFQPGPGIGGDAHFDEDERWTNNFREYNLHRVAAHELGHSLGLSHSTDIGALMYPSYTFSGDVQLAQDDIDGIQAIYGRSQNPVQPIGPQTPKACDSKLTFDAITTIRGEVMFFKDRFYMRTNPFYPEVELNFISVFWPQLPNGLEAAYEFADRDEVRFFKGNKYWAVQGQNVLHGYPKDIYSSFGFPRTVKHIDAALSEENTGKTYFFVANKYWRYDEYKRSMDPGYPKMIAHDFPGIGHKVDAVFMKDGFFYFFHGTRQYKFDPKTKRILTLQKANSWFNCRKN
Experiment: Inhibition of human matrix metalloprotease-1

pIC50 | pKi | SMILES
6.04 |  | CCCCOc1ccc(S(=O)(=O)N2CC(N3CCOCC3)CC2C(=O)NO)cc1 (stereo not given)
8.00 |  | Cc1ccc(COc2ccc(S(=O)(=O)N3CCCC(C)(O)C3C(=O)NO)cc2)c(C)c1 (stereo not given)
6.44 |  | CC(C)C(NS(=O)(=O)N1CCC(Oc2ccc(Cl)cn2)CC1)C(=O)NO (stereo not given)
 | 6.65 | O=C(NO)C1CCCCN1S(=O)(=O)N1CCC(Oc2ccc(-n3ccnc3)cc2)CC1 (stereo not given)
 | 6.37 | O=C(NO)C1CCCCN1S(=O)(=O)N1CCN(c2ccccn2)CC1 (stereo not given)

Continued, molecule first:

SMILES | pIC50 | pKi
CCOC(=O)[C@H](C)NC(=O)[C@H](CC(C)C)NC(=O)[C@@H](CC(=O)NO)CC(C)C | 7.40 | 
O=C(CC1(S(=O)(=O)c2ccc(Oc3ccc(Cl)cc3)cc2)CCOCC1)NO |  | 7.15
O=C(CN(Cc1ccc([N+](=O)[O-])cc1)S(=O)(=O)c1ccc(C(F)(F)F)cc1)NO |  | 8.52
CC#CCOc1ccc(S(=O)(=O)N2CCc3ccccc3C2C(=O)NO)cc1 (stereo not given) | 6.92 | 
CNC(=O)C(NC(=O)C(CC(C)C)C(NS(=O)(=O)c1cccc2cccc(=O)n12)C(=O)NO)C(C)(C)C (stereo not given) | 8.89 | 
